Assay results taken from patent publication US20260130901A1, “CGRP RECEPTOR ANTAGONIST FOR THE TREATMENT OF MIGRAINE” (ALLERGAN PHARMACEUTICALS INTERNATIONAL LIMITED, priority 2022, published 2026).

Experiments:
[1] = system: participants with migraine (qualifying prodrome events); assay: Phase 3 crossover study: activity limitation at 24 hours; type: in vivo, human; details: 100 mg in prodrome, at 24 hours post-dose
Experimental: (§1) A phase 3, multicenter, randomized, double-blind, placebo-controlled, crossover study was carried out to evaluate the efficacy, safety, and tolerability of oral ubrogepant in the acute treatment of migraine when administered during the prodrome. The study evaluated whether treatment during the initial phase of a migraine attack (i.e., the prodrome or premonitory phase) prior to the onset of headache, can attenuate the severity of the headache phase and reduce disability.
(§2) Eligible participants were randomized (1:1) to treatment sequences A or B in this crossover study. Participants randomized to Treatment Sequence A received placebo to treat their first qualifying prodrome event and ubrogepant 100 mg to treat their second qualifying prodrome event. For those randomized to Treatment Sequence B, they received the reverse: ubrogepant 100 mg to treat their first qualifying prodrome event and placebo to treat their second qualifying prodrome event.

[2] = system: participants with migraine (qualifying prodrome events); assay: Phase 3 crossover study: absence of headache after treatment during the prodrome; type: in vivo, human
Experimental: as §1
Eligible participants were able to treat two qualifying prodrome events, defined as a migraine attack with prodromal symptoms in which the participant was confident a headache would follow within 1-6 hours.
The primary endpoint was absence of moderate or severe intensity headache within 24 hours post-dose. Secondary endpoints were absence of moderate/severe intensity headache within 48 hours, ability to function normally over 24 hours, and absence of headache of any intensity within 24 hours post-dose.
The trial enrolled adults with 2-8 migraine attacks per month who stated that they could identify migraine attacks with prodromal symptoms reliably followed by headache. Using an e-diary, participants reported qualifying events, defined as a migraine attack with prodromal symptoms in which the participant was confident a headache would follow within 1-6 hours.
as §2
The primary efficacy endpoint was the absence of a headache of moderate/severe intensity within 24 hours after taking double-blind study intervention during the prodrome. The secondary efficacy endpoints were the absence of a headache of moderate or severe intensity within 48 hours, ability to function normally over 24 hours, and absence of a headache of any intensity within 24 hours after taking double blind study interventions during the prodrome.
The overall study design is illustrated in FIG. 1. […] After meeting eligibility criteria, randomized participants were to treat two qualifying prodrome events with study intervention during the double-blind treatment period (between Visit 2 and Visit 4) (up to 60 days), separated by a clinic visit (visit 3) to ensure a minimum 7-day washout period. A post-treatment visit (visit 4) followed four days after the last treatment was taken.
To be eligible for study participation, participants must be 18 to 75 years of age (inclusive) at Visit 1, have at least a 1-year history of migraine with or without aura consistent with diagnosis according to the ICHD-3 (2018), and experience 2 to 8 migraine attacks with moderate to severe headache per month by history in each of the 3 months prior to screening. At the screening visit, participants were asked whether they could identify prodromal symptoms followed by migraine headache within 1 to 6 hours at least 75% of the time. […] After the screening period, to be eligible for randomization, the participant needed to record 3 to 16 qualifying prodrome events with at least 75% of these events followed by a headache, of any intensity, within 1 to 6 hours.
Participants were excluded if they had difficulty distinguishing migraine from tension-type or other headache types, or if they had chronic migraine, a trigeminal autonomic cephalalgia, or a painful cranial neuropathy. Participants who overused medication for migraine or had previous exposure to an injectable anti-CGRP monoclonal antibody within the previous 3 months were also excluded.
Participant flow is illustrated in FIG. 2. […]

[3] = 100 mg in prodrome, within 1 hour, mITT, observed cases
[4] = 100 mg in prodrome, within 2 hours, mITT, observed cases
[5] = 100 mg in prodrome, within 3 hours, mITT, observed cases
[6] = 100 mg in prodrome, within 4 hours, mITT, observed cases
[7] = 100 mg in prodrome, within 6 hours, mITT, observed cases
[8] = 100 mg in prodrome, within 8 hours, mITT, observed cases
[9] = 100 mg in prodrome, within 24 hours, mITT, observed cases
[10] = 100 mg in prodrome, within 24 hours, mITT, observed cases (primary analysis)
[11] = 100 mg in prodrome, within 24 hours, sensitivity analysis: Period 1 data only
[12] = 100 mg in prodrome, within 24 hours, sensitivity analysis: non-responder imputation
[13] = 100 mg in prodrome, within 24 hours, sensitivity analysis: testing carryover effect
[14] = 100 mg in prodrome, within 48 hours, mITT, observed cases

Compound: C[C@@H]1[C@H](c2ccccc2)C[C@H](NC(=O)c2cnc3c(c2)C[C@@]2(C3)C(=O)Nc3ncccc32)C(=O)N1CC(F)(F)F [Ubrogepant, (3′S)—N-((3S,5S,6R)-6-methyl-2-oxo-5-phenyl-1-(2,2,2-trifluoroethyl)piperidin-3-yl)-2′-oxo-1′,2′,5,7-tetrahydrospiro[cyclopenta[b]pyridine-6,3′-pyrrolo[2,3-b]pyridine]-3-carboxamide]
- Activity limitation, Odds ratio vs placebo [1]: 2.07
- Activity limitation, Responders (%) (not at all limited or a little limited) [1]: (65.4) %
- Activity limitation, Responders (%) (not at all limited or a little limited) ([1]; listed as ubrogepant): 65.4%
- Absence of a headache of any intensity, Nonresponder (%) [2, 3]: (42.9) %
- Absence of a headache of any intensity, Odds Ratio vs. Placebo [2, 3]: 1.19
- Absence of a headache of any intensity, Responder (%) [2, 3]: (57.1) %
- Absence of a headache of moderate/severe intensity, Nonresponder (%) [2, 3]: (22.9) %
- Absence of a headache of moderate/severe intensity, Odds Ratio vs. Placebo [2, 3]: 1.30
- Absence of a headache of moderate/severe intensity, Responder (%) [2, 3]: (77.1) %
- Absence of a headache of severe intensity, Nonresponder (%) [2, 3]: (4.0) %
- Absence of a headache of severe intensity, Odds Ratio vs. Placebo [2, 3]: 1.21
- Absence of a headache of severe intensity, Responder (%) [2, 3]: (96.0) %
- Absence of a headache of any intensity, Nonresponder (%) [2, 4]: (55.7) %
- Absence of a headache of any intensity, Odds Ratio vs. Placebo [2, 4]: 1.34
- Absence of a headache of any intensity, Responder (%) [2, 4]: (44.3) %
- Absence of a headache of moderate/severe intensity, Nonresponder (%) [2, 4]: (35.4) %
- Absence of a headache of moderate/severe intensity, Odds Ratio vs. Placebo [2, 4]: 1.31
- Absence of a headache of moderate/severe intensity, Responder (%) [2, 4]: (64.6) %
- Absence of a headache of severe intensity, Nonresponder (%) [2, 4]: (7.4) %
- Absence of a headache of severe intensity, Odds Ratio vs. Placebo [2, 4]: 1.33
- Absence of a headache of severe intensity, Responder (%) [2, 4]: (92.6) %
- Absence of a headache of any intensity, Nonresponder (%) [2, 5]: (62.5) %
- Absence of a headache of any intensity, Odds Ratio vs. Placebo [2, 5]: 1.60
- Absence of a headache of any intensity, Responder (%) [2, 5]: (37.5) %
- Absence of a headache of moderate/severe intensity, Nonresponder (%) [2, 5]: (39.9) %
- Absence of a headache of moderate/severe intensity, Odds Ratio vs. Placebo [2, 5]: 1.71
- Absence of a headache of moderate/severe intensity, Responder (%) [2, 5]: (60.1) %
- Absence of a headache of severe intensity, Nonresponder (%) [2, 5]: (9.4) %
- Absence of a headache of severe intensity, Odds Ratio vs. Placebo [2, 5]: 1.41
- Absence of a headache of severe intensity, Responder (%) [2, 5]: (90.6) %
- Absence of a headache of any intensity, Nonresponder (%) [2, 6]: (67.3) %
- Absence of a headache of any intensity, Odds Ratio (95% CI) vs. Placebo [2, 6]: 1.76 (1.35, 2.30)
- Absence of a headache of any intensity, Responder (%) [2, 6]: (32.7) %
- Absence of a headache of moderate/severe intensity, Nonresponder (%) [2, 6]: (41.5) %
- Absence of a headache of moderate/severe intensity, Odds Ratio vs. Placebo [2, 6]: 1.91
- Absence of a headache of moderate/severe intensity, Responder (%) [2, 6]: (58.5) %
- Absence of a headache of severe intensity, Nonresponder (%) [2, 6]: (10.5) %
- Absence of a headache of severe intensity, Odds Ratio vs. Placebo [2, 6]: 1.70
- Absence of a headache of severe intensity, Responder (%) [2, 6]: (89.5) %
- Absence of a headache of any intensity, Nonresponder (%) [2, 7]: (71.0) %
- Absence of a headache of any intensity, Odds Ratio vs. Placebo [2, 7]: 1.79
- Absence of a headache of any intensity, Responder (%) [2, 7]: (29.0) %
- Absence of a headache of moderate/severe intensity, Nonresponder (%) [2, 7]: (46.6) %
- Absence of a headache of moderate/severe intensity, Odds Ratio vs. Placebo [2, 7]: 1.86
- Absence of a headache of moderate/severe intensity, Responder (%) [2, 7]: (53.4) %
- Absence of a headache of severe intensity, Nonresponder (%) [2, 7]: (12.5) %
- Absence of a headache of severe intensity, Odds Ratio vs. Placebo [2, 7]: 1.77
- Absence of a headache of severe intensity, Responder (%) [2, 7]: (87.5) %
- Absence of a headache of any intensity, Nonresponder (%) [2, 8]: (72.5) %
- Absence of a headache of any intensity, Odds Ratio vs. Placebo [2, 8]: 1.85
- Absence of a headache of any intensity, Responder (%) [2, 8]: (27.5) %
- Absence of a headache of moderate/severe intensity, Nonresponder (%) [2, 8]: (48.2) %
- Absence of a headache of moderate/severe intensity, Odds Ratio vs. Placebo [2, 8]: 2.01
- Absence of a headache of moderate/severe intensity, Responder (%) [2, 8]: (51.8) %
- Absence of a headache of severe intensity, Nonresponder (%) [2, 8]: (13.1) %
- Absence of a headache of severe intensity, Odds Ratio vs. Placebo [2, 8]: 1.89
- Absence of a headache of severe intensity, Responder (%) [2, 8]: (86.9) %
- Absence of a headache of any intensity, Nonresponder (%) [2, 9]: (76.3) %
- Absence of a headache of any intensity, Odds Ratio vs. Placebo [2, 9]: 1.93
- Absence of a headache of any intensity, Responder (%) [2, 9]: (23.7) %
- Absence of a headache of severe intensity, Nonresponder (%) [2, 9]: (14.5) %
- Absence of a headache of severe intensity, Odds Ratio vs. Placebo [2, 9]: 1.83
- Absence of a headache of severe intensity, Responder (%) [2, 9]: (85.5) %
- Absence of a headache of moderate/severe intensity, Nonresponder (%) [2, 10]: (54.5) %
- Absence of a headache of moderate/severe intensity, Odds Ratio vs. Placebo [2, 10]: 2.09
- Absence of a headache of moderate/severe intensity, Responder (%) [2, 10]: (45.5) %
- Absence of a headache of moderate/severe intensity, Responder (%) ([2]; 100 mg in prodrome, within 24 hours, mITT, observed cases (primary analysis), listed as ubrogepant): 45.5%
- Absence of a headache of any intensity, Responder (%) ([2]; 100 mg in prodrome, within 24 hours, mITT, observed cases, listed as ubrogepant): 23.7%
- Absence of a headache of moderate/severe intensity, Nonresponder (%) [2, 11]: (52.6) %
- Absence of a headache of moderate/severe intensity, Odds Ratio vs. Placebo [2, 11]: 2.11
- Absence of a headache of moderate/severe intensity, Responder (%) [2, 11]: (47.4) %
- Absence of a headache of moderate/severe intensity, Nonresponder (%) [2, 12]: (57.6) %
- Absence of a headache of moderate/severe intensity, Odds Ratio vs. Placebo [2, 12]: 2.01
- Absence of a headache of moderate/severe intensity, Responder (%) [2, 12]: (42.4) %
- Absence of a headache of moderate/severe intensity, Nonresponder (%) [2, 13]: (54.5) %
- Absence of a headache of moderate/severe intensity, Odds Ratio vs. Placebo [2, 13]: 2.09
- Absence of a headache of moderate/severe intensity, Responder (%) [2, 13]: (45.5) %
- Absence of a headache of any intensity, Nonresponder (%) [2, 14]: (81.4) %
- Absence of a headache of any intensity, Odds Ratio vs. Placebo [2, 14]: 1.90
- Absence of a headache of any intensity, Responder (%) [2, 14]: (18.6) %
- Absence of a headache of moderate/severe intensity, Nonresponder (%) [2, 14]: (59.3) %
- Absence of a headache of moderate/severe intensity, Odds Ratio vs. Placebo [2, 14]: 2.13
- Absence of a headache of moderate/severe intensity, Responder (%) [2, 14]: (40.7) %
- Absence of a headache of severe intensity, Nonresponder (%) [2, 14]: (17.4) %
- Absence of a headache of severe intensity, Odds Ratio vs. Placebo [2, 14]: 1.71
- Absence of a headache of severe intensity, Responder (%) [2, 14]: (82.6) %
- Absence of a headache of moderate/severe intensity, Responder (%) ([2]; 100 mg in prodrome, within 48 hours, mITT, observed cases, listed as ubrogepant): 40.7%
- Reducing the development of moderate/severe headache within 24 and 48 hours and of headache of any intensity within 24 hours ([2]; administered during the prodrome): superior to placebo
